Measurements: patent US7368287B2, “Use of L-α-lysophosphatidylcholine to obtain the differentiation of monocytes into mature dendritic cells in vitro” (Biomerieux, priority 2002, dated 2008)
Values belong to the compound of their own block, whether it stands above or below them.

Experiments:
PAF receptor = experiment: CD86 expression in presence of PAF or of the PAF antagonist BN52021; format: cell-based, human; settings: differentiation induced by oxidized LDLs; BN52021 added on 5th day
Description: The phenotype of the “control” and “LPC” cells is analyzed by flow cytometry on a FACSCalibur (Becton Dickinson, Francklin Lakes, N.J., USA) using FITC (fluorosceine isothiocyanate)-conjugated anti-CD14, anti-HLA-DR and anti-CD80 and PE (phycoerythrin)-conjugated anti-CD1a, anti-CD83, anti-CD86 and anti-CD40 (Beckman Coulter). According to the state of the art, monocytes preferentially have a CD14+ CD1a− phenotype, immature dendritic cells preferentially have a CD14− CD1a+CD86− phenotype, and mature dendritic cells preferentially have a CD14− CD1a intermediate—CD86+ phenotype.
Thus, a solution of PAF (Sigma, 5 μM) was added to the culture medium on the 5th day of monocyte differentiation. The expression of CD86 by the “control” cells and by the “LPC” cells, obtained in the presence or in the absence of PAF, was analyzed according to the protocol described in example 2, and the results are given in table 9.
Thus, a solution of the PAF antagonist BN52021 (Biomol, Plymouth Meeting, USA, 100 μM) was added to the culture medium on the 5th day of monocyte differentiation. The expression of CD86 by the “control” and “LPC” cells, obtained in the presence or in the absence of BN52021, was analyzed according to the protocol described in example 2, and the results are given in table 10.

PPARδ = experiment: PPAR binding activity by gel shift on nuclear proteins of treated monocytes; format: cell-based, human; settings: Table 7; ciglitizone 50 μM 15 minutes before LPC 40 μM for 2 hours; control = 100%
Description: (§1) Next, the inventors investigated the transcription factors involved in the maturation process induced by LPC. In order to determine whether PPARs are involved in the LPC-induced maturation, the ability of the two transcription factors PPARγ and PPARδ to bind was analyzed using the gel shift technique. 3 isotypes of PPAR nuclear receptors (peroxisome proliferator-activated receptor) exist: α, γ and δ. PPARγs are the targets for molecules of the thiazolidinedione class, such as ciglitizone, used in the treatment of type II diabetes. PPARδs have a broader expression and can be repressors of PPARγs. The monocytes undergoing differentiation were incubated for two hours with a solution of LPC (40 μM) (“LPC” cells). “Control” cells are also obtained in the absence of LPC in the culture medium. After having harvested the cells, the nuclear proteins were extracted with the Nuclear extract Kit (Sigma). The nuclear proteins were then brought into contact with a ratioactively labeled probe containing a response element recognized by PPARs. […] The PPAR binding activity was determined by measuring the intensity of these bands. These activities are expressed as a percentage with respect to the “control” cells. […]
(§2) The activity of the PPARγ and PPARδ transcription factors was measured in these cells by the gel shift technique, as described above.
(§3) INTRALIPID® regulates PPARs in vitro. […] The cells were harvested after 1 h, 2 h or 8 h of incubation with INTRALIPID®, the nuclear proteins were extracted and the activity of PPARγ and PPARδ was determined as described in example 6.
(§4) Secondly, a solution of INTRALIPID® (50 μg/ml of phospholipids) was added to the culture medium on the 5th day of monocyte differentiation, 15 minutes before the addition of a solution of LPC (40 μM) (“LPC+Intralipid” cells). […] The cells were harvested after 2 h of incubation, the nuclear proteins were extracted and the activity of PPARγ and PPARδ was determined as described in example 6.

PPARγ = target: T1, PPARγ (Homo sapiens, UniProt P37231); experiment: as above; format: cell-based; settings: Table 7; ciglitizone 50 μM 15 minutes before LPC 40 μM for 2 hours; control = 100%
T1 construct: After having harvested the cells, the nuclear proteins were extracted with the Nuclear extract Kit (Sigma); endogenous in cells; host or cells: monocytes undergoing differentiation into dendritic cells (nuclear extract)
T1 sequence (P37231 1-505): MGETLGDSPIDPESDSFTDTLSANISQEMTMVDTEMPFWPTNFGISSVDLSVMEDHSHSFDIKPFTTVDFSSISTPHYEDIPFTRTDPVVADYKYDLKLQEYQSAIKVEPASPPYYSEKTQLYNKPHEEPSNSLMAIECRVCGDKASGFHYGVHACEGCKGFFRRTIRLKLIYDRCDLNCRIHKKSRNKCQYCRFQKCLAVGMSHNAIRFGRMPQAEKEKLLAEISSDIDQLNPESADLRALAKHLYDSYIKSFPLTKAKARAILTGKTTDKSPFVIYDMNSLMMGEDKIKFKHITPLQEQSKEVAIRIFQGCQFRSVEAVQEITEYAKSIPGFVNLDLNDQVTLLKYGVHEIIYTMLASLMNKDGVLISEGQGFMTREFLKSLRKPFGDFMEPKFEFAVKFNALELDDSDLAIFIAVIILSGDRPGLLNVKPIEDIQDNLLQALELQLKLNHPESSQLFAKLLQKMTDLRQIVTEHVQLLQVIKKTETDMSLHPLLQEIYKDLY
Description: as §1, §2, §3, §4

BALB/c mice [1] = experiment: Migration of skin dendritic cells to draining lymph nodes (FITC uptake); format: in vivo, mouse; settings: auricular and maxillary lymph nodes after 24 h; LPC 0.1 M on ear skin 10 minutes before FITC 1.5%
Description: This fluorescent label is taken up by the dendritic cells of the skin. After 24 h, the auricular and maxillary lymph nodes are removed and the cells are placed in suspension. The cell suspension is enriched in dendritic cells by metrizamide (Sigma) gradient centrifugation. The cells are labeled with an antibody (Pharmingen) which recognizes Major Histocompatibility Complex (MHC) […] molecules and analysis by flow cytometry makes it possible to quantify the percentage of large cells (dendritic cells) expressing the MHC class II molecules and containing FITC. These cells are presenting cells which have taken up the FITC in the periphery and have migrated to the lymph nodes.

BALB/c mice [2] = experiment: Proliferation of HEL-specific T cells of popliteal lymph nodes after immunization (thymidine incorporation); format: in vivo, mouse
Description: LPC stimulates the T response specific for a co-injected soluble antigen. LPC dissolved in PBS (250 or 500 nmol in 50 μl) is mixed with hen egg lysozyme (HEL, 50 μg) and this mixture is injected into the plantar foot pad of BALB/c mice. After 7 days, the popliteal lymph nodes are removed and their cells are restimulated in triplicate in vitro, in a culture medium containing 30 μM of HEL antigen, or in the absence of HEL. After 3 days, the T lymphocyte proliferation is measured by incorporation of triturated thymidine for 16 h.
INTRALIPID® blocks the inflammation and the immune response induced by LPC, in vivo. In this example, 3 batches of BALB/c mice are immunized against the hen egg lysozyme (HEL) antigen by injection of 50 μl of solution into the plantar foot pad. The “HEL” control batch receives 50 μg of HEL, the “HEL+Intralipid” batch receives a mixture of INTRALIPID® (45 μl) and of 50 μg of HEL (5 μl of a solution at 10 mg/ml). The “HEL+LPC” batch receives 50 μg of HEL with 350 nmol of LPC dissolved in PBS. The “HEL+LPC+Intralipid” batch receives 50 μg of HEL mixed with 350 nmol of LPC dissolved in 45 μl of INTRALIPID®. After 24 hours, the thickness of the foot pads is measured using a micrometer, and compared with the measurement taken before injection. The difference in thickness is proportional to the intensity of the inflammation.
Seven days after the injection, the popliteal lymph nodes are removed and their cells are restimulated in vitro in triplicate, in a culture medium containing 10 μM of HEL or in the absence of HEL. After 3 days, the proliferation of HEL-specific T lymphocytes is measured by incorporation of triturated thymidine for 16 h.

[3] = Table 18, HEL 50 μg, LPC 350 nmol, Intralipid 45 μl, seven days after injection

Inhibition of the action of the oxidized LDLs (PAF receptor): 100%
Compound: CC1C(=O)OC2C(O)C34C5CC(C(C)(C)C)C36C(OC(=O)C6O)OC4(C(=O)O5)C12O (centres unmarked) [BN52021, reference compound]

PPARγ binding activity (PPARγ): 237%
Compound: CC1(COc2ccc(CC3SC(=O)NC3=O)cc2)CCCCC1 (centres unmarked) [Ciglitizone, reference compound]
PPARδ binding activity (PPARδ): 106%

Compound: O=C1OC2(c3ccc(O)cc3Oc3cc(O)ccc32)c2ccc(N=C=S)cc21 [FITC]
FITC+ dendritic cells (BALB/c mice [1]): 7.1 ± 1.7%

Compound: HEL: hen egg lysozyme, soluble antigen; antigen-only group
Restimulation with HEL (30 μM) (BALB/c mice [2]; Table 13, immunization with HEL 50 μg alone): 5370 ± 1983 CPM
Proliferation in the absence of HEL (BALB/c mice [2]; Table 13, immunization with HEL 50 μg alone, day 7 lymph node cells): 1315 ± 275 CPM
Proliferation in the absence of HEL (BALB/c mice [2]; [3]): 370 ± 212 cpm
Restimulation with HEL (10 μM) (BALB/c mice [2]; [3]): 738 ± 408 cpm
